Experimental data reported in patent US11235020B2, “Methods and compositions for inhibiting glyoxalase 1 (GLO1)” (priority 2013, dated 2022).
Like-named read-outs stand apart in the source and are kept apart here.

How the values were obtained:
Format in all cases: in vivo, mouse
[1] = HPLC measurement of MG concentration in whole brain after i.p. MG; settings: for concentration at 10 min: intraperitoneal, read-out: Estimated MG concentration; for concentration at 10 min / MG concentration (nmol/g tissue): brain; for MG concentration (nmol/g tissue): 10 min post-injection
Procedure: MG concentration was measured by HPLC as previously described with modifications (Dhar 2009). Tissue was homogenized in 50 mM sodium phosphate buffer (pH 6.6) and 0.8N perchloric acid. It was then incubated on ice for 10 minutes and centrifuged. The supernatant was filtered, and MG was derivatized with 10 mM o-phenylenediamine to form 2-methylquinoxaline (2-MQ). 5-methylquinoxaline (5-MQ, 15 μM) was spiked into each sample as an internal standard. 2-MQ was quantified using an HP 1100 HPLC system (Agilent) with a Nova-Pak C18 column (Waters Corporation). Column effluent was monitored at 315 nm. 2-MQ concentration was determined by comparison to 2-MQ standards of known mass. Quantification of 2-MQ was corrected for losses by comparison with 5-MQ. MG concentration was calculated as 2-MQ/tissue weight. Treatment: Unless otherwise noted, crude MG was used for all behavioral experiments. MG was obtained from Sigma-Aldrich, filter-sterilized (0.22 μm filter, Millipore), diluted in vehicle (0.9% NaCl), and adjusted to pH 7.4. Mice were injected i.p. with 10 ml/kg MG or vehicle. HPLC: Ten minutes post-injection, mice were sacrificed, and brains were rapidly dissected and flash-frozen on dry ice. MG concentration was measured as described above.

[2] = tested on: anxiety-like behavior in B6 mice; experiment: Light-dark (LD) box test; settings: MG 50 mg/kg i.p.
Procedure: (§1) LD box test: Mice were placed in the light compartment, and activity was monitored for 4 minutes. The light compartment was illuminated to approximately 1,000 lux, and the dark compartment was illuminated to approximately 5 lux. Behavior was recorded and automatically scored by the Noldus Ethovision System.
as §1, with “Ten minutes post-injection, mice” for “Mice”, “three” for “4”

[3] = tested on: motor coordination in mice; experiment: Balance beam test; settings: 300 mg/kg i.p., B6 mice
Procedure: The balance beam was 97 cm×9.5 mm and elevated to 46 cm. Mice were tested on the balance beam, and missteps were counted.
Balance beam: The balance beam test was performed as described above. Ten minutes post-injection, mice were tested on the balance beam, and missteps were recorded.

[4] = tested on: pilocarpine-induced seizures; experiment: Pilocarpine-induced seizures
Procedure: Drug administration: All experiments with MG utilized crude MG obtained from Sigma-Aldrich. For pre-treatment, MG (50 or 200 mg/kg) or vehicle (0.9% saline) was administered by i.p. injection 10 minutes before the seizure-inducing agent. For treatment after seizure onset, MG (200 mg/kg) or vehicle (0.9% saline) was administered by i.p. injection ten minutes after seizure onset. For GLO1 inhibition, BrBzGCp2 (50 mg/kg) or vehicle (8% DMSO and 18% Tween-80) was administered by i.p. injection two hours before seizure induction.
Seizure induction: For picrotoxin-induced seizures, 5 mg/kg of picrotoxin in 0.9% saline was administered by i.p. injection. Seizures were scored for one hour after picrotoxin administration. For pilocarpine-induced seizures, mice were pre-treated with atropine (5 mg/kg in 0.9% saline) by i.p. injection in order to reduce the peripheral effects of pilocarpine. Thirty minutes after atropine administration, pilocarpine was administered by i.p. injection. B6 mice were treated with 250 mg/kg pilocarpine in 0.9% saline, and FVB mice (WT and Tg) were treated with 300 mg/kg pilocarpine in 0.9% saline. Seizures were scored for 90 minutes after pilocarpine administration.
Pilocarpine-induced seizures were scored as previously reported (Winawer 2011):
Stage 1: Immobility/Lying Low
Stage 2: Partial (limbic) seizures. Non-continuous twitching/tremor/shaking of tail/head/body/limbs, forelimb and/or tail extension, rigid posture, repetitive movements, head bobbing
Stage 3: Partial status epilepticus. Continuous tremor/clonic seizures of body and tail while retaining posture
Stage 4: Generalized seizures. Rearing/hyperexcitability/running/falling, tonic extension/clonic seizures with loss of posture
Stage 5: Generalized status epilepticus (continuous stage 4 seizures) resulting in death

[5] = MG 50 and 200 mg/kg pre-treatment, pilocarpine 250 mg/kg, B6 mice

SMILES: CC(=O)C=O [MG, methylglyoxal]
- concentration at 10 min ([1]; B6, mouse, MG 50 mg/kg i.p. (anxiolytic dose)): 5.94 µM
- concentration at 10 min ([1]; B6, mouse, MG 100 mg/kg i.p.): 6.54 µM
- concentration at 10 min ([1]; B6, mouse, MG 300 mg/kg i.p.): 8.26 µM
- expected increase of the concentration of MG in the brain ([1]; MG 50 mg/kg): approximately 16%
- MG concentration (nmol/g tissue) ([1]; MG 50 mg/kg i.p.): 5.66 ± 0.36 nmol/g tissue
- MG concentration (nmol/g tissue) ([1]; MG 100 mg/kg i.p.): 6.23 ± 0.26 nmol/g tissue
- expected increase of the concentration of MG in the brain ([1]; MG 200 mg/kg): ~43%
- MG concentration (nmol/g tissue) ([1]; MG 300 mg/kg i.p.): 7.87 ± 0.56 nmol/g tissue
- concentration at 10 min ([1]; mouse, MG 50 mg/kg i.p. (anxiolytic dose)): ~6 µM
- number of transitions between compartments [2]: without affecting the number of transitions
- time spent in the light compartment ([2]; 10 min post-injection): increased time spent in the light compartment
- footslips on the balance beam (ataxia) [3]: made more footslips than vehicle-treated mice
- seizure duration, treatment of ongoing seizures ([4]; MG 200 mg/kg given 10 min after pilocarpine 250 mg/kg): reduced seizure duration in mice undergoing pilocarpine-induced seizures
- highest seizure stage reached [4, 5]: reduced seizure stage
- latency to reach stage 3 (seizure onset) [4, 5]: dose-dependently delayed seizure onset
- time spent in stage 3 (seizure duration) [4, 5]: reduced seizure duration
